Results on 1 compound are retold here after patent US20080255186A1, “Pyrazolo[3,4-B]Pyridine Compound, and Its Use as a Pde4 Inhibitor” (priority 2005, published 2008).

Assay [1] addresses T1, PDE4B (human recombinant) (Homo sapiens, UniProt Q07343).
T1 construct: made in house; host or cells: Saccharomyces cerevisiae strain GL62 (PDE-deficient yeast)
Nature of the assay: PDE4B inhibition, IMAP Fluorescence Polarisation (FP) assay. The format is biochemical. Conditions: mean of n = 3 readings; accurate to about ±0.5 log unit; read-out: PDE4B pIC50 (± about 0.5) (FP assay), Mean pIC50 value (converted). The text has this:
Human recombinant PDE4B, in particular the 2B splice variant thereof (HSPDE4B2B), is disclosed in WO 94/20079 and also M. M. McLaughlin et al., “A low Km, rolipram-sensitive, cAMP-specific phosphodiesterase from human brain: cloning and expression of cDNA, biochemical characterisation of recombinant protein, and tissue distribution of mRNA”, J. Biol. Chem., 1993, 268, 6470-6476. For example, in Example 1 of WO 94/20079, human recombinant PDE4B is described as being expressed in the PDE-deficient yeast Saccharomyces cerevisiae strain GL62, e.g. after induction by addition of 150 uM CuSO4, and 100,000×g supernatant fractions of yeast cell lysates are described for use in the harvesting of PDE4B enzyme.
The ability of compounds to inhibit catalytic activity at PDE4B (human recombinant) or PDE4D (human recombinant) can optionally be determined by IMAP Fluorescence Polarisation (FP) assay (IMAP Explorer kit, available from Molecular Devices Corporation, Sunnydale, Calif., USA; Molecular Devices code: R8062) in 384-well format.
The IMAP FP assay is able to measure PDE activity in an homogenous, non-radioactive assay format. […] Binding of Fl-AMP product to the beads (coated with the immobilised trivalent cations) slows the rotation of the bound Fl-AMP and leads to an increase in the fluorescence polarisation ratio of parallel to perpendicular light. […]

A further assay has as its target PDE5 (human recombinant) (Homo sapiens, UniProt O76074). Put plainly: PDE5 inhibition (FP or SPA general type of assay). To be noted: in the particular assays used. The format is biochemical. The text has this:
Human recombinant PDE5 is disclosed in K. Loughney et al., “Isolation and characterisation of cDNAs encoding PDE5A, a human cGMP-binding, cGMP-specific 3′,5′-cyclic nucleotide phosphodiesterase”, Gene, 1998, 216, 139-147.
The ability of compounds to inhibit catalytic activity at PDE4B or 4D (human recombinant), PDE3 (from bovine aorta), PDE5 (human recombinant) or PDE6 (from bovine retina) can optionally be determined by Scintillation Proximity Assay (SPA) in a 96-well format.
Test compounds (as a solution in DMSO, suitably about 2 microlitre (ul) volume of DMSO solution) are preincubated at ambient temperature (room temperature, e.g. 19-23° C.) in Wallac Isoplates (code 1450-514) with PDE enzyme in 50 mM Tris-HCl buffer pH 7.5, 8.3 mM MgCl2, 1.7 mM EGTA, 0.05% (w/v) bovine serum albumin for 10-30 minutes (usually 30 minutes). […] Bound radioactive product is measured using a WALLAC TRILUX 1450 Microbeta scintillation counter. […] Curves are analysed using ActivityBase and XLfit (ID Business Solutions Limited, 2 Ocean Court, Surrey Research Park, Guildford, Surrey GU2 7QB, United Kingdom). Results are expressed as pIC50 values.
The compound of the invention (e.g. as prepared in Example 1) has also been tested for PDE3, PDE5 and PDE6 inhibition, e.g. using (independently for each PDE type) either a Fluorescence Polarisation (FP) general type of assay or using an SPA general type of assay.

T1 sequence (Q07343 1-564 isoform Q07343-2): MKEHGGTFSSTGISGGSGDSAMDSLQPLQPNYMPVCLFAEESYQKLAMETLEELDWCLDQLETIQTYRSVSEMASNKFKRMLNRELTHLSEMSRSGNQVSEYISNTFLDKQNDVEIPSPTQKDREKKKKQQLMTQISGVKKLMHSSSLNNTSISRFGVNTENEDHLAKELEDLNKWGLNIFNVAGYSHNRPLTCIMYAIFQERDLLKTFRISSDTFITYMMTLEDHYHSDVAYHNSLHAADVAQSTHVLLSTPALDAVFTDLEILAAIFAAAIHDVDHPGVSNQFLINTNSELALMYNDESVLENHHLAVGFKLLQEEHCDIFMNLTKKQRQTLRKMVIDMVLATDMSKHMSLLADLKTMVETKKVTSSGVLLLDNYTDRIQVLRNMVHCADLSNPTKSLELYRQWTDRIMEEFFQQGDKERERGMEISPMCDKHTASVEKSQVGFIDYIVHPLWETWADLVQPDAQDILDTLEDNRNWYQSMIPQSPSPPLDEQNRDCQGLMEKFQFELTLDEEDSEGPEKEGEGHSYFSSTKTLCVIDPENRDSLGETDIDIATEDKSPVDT

As for `CCc1nc2c(cnn2CC)c(NC2CCOCC2)c1CNC(=O)c1cc(C)no1` [Example 1, N-{[1,6-diethyl-4-(tetrahydro-2H-pyran-4-ylamino)-1H-pyrazolo[3,4-b]pyridin-5-yl]methyl}-3-methyl-5-isoxazolecarboxamide], the IC50 in assay [1] is around 0.158 nM. The “PDE4B pIC50 compared with PDE5 pIC50 (selectivity)” value at PDE5 (human recombinant) was “inhibits PDE4B more strongly than it inhibits PDE3, PDE5 and PDE6”.
